Experimental data as given in PubChem BioAssay AID1963841 (Molecular Pharmacology Branch, DTP, NCI, 2024).

Tested on: 439559-082-T-J2-PDC spheroid viability
Assay: Anticancer human tumor 439559-082-T-J2-PDC patient-derived colon adenocarcinoma cell line growth inhibition [POLQ]
Details: spheroids with HUVEC and MSC; for IC50: curve of first compound; for viability, T/C: stronger effect = lower value
Procedure, shortened: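 PDC + HUVEC + MSC complex spheroids; POLQ inhibitors ± partner drugs; top conc. at/near clinical Cmax, else 10 microM (SN-38 1 microM), half-log dilutions; 37 degrees C, 5% CO2.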

[1] = second compound 0.0316 µM, first compound 0.0316 µM
[2] = second compound 0.0316 µM, first compound 0.1 µM
[3] = second compound 0.0316 µM, first compound 0.316 µM
[4] = second compound 0.0316 µM, first compound 1 µM
[5] = second compound 0.0316 µM, first compound 3.16 µM
[6] = second compound 0.0316 µM, first compound 10 µM
[7] = second compound 0.1 µM, first compound 0.0316 µM
[8] = second compound 0.1 µM, first compound 0.1 µM
[9] = second compound 0.1 µM, first compound 0.316 µM
[10] = second compound 0.1 µM, first compound 1 µM
[11] = second compound 0.1 µM, first compound 3.16 µM
[12] = second compound 0.1 µM, first compound 10 µM
[13] = second compound 0.316 µM, first compound 0.0316 µM
[14] = second compound 0.316 µM, first compound 0.1 µM
[15] = second compound 0.316 µM, first compound 0.316 µM
[16] = second compound 0.316 µM, first compound 1 µM
[17] = second compound 0.316 µM, first compound 3.16 µM
[18] = second compound 0.316 µM, first compound 10 µM
[19] = second compound 1 µM, first compound 0.0316 µM
[20] = second compound 1 µM, first compound 0.1 µM
[21] = second compound 1 µM, first compound 0.316 µM
[22] = second compound 1 µM, first compound 1 µM
[23] = second compound 1 µM, first compound 3.16 µM
[24] = second compound 1 µM, first compound 10 µM
[25] = second compound 3.16 µM, first compound 0.0316 µM
[26] = second compound 3.16 µM, first compound 0.1 µM
[27] = second compound 3.16 µM, first compound 0.316 µM
[28] = second compound 3.16 µM, first compound 1 µM
[29] = second compound 3.16 µM, first compound 3.16 µM
[30] = second compound 3.16 µM, first compound 10 µM
[31] = second compound 10 µM, first compound 0.0316 µM
[32] = second compound 10 µM, first compound 0.1 µM
[33] = second compound 10 µM, first compound 0.316 µM
[34] = second compound 10 µM, first compound 1 µM
[35] = second compound 10 µM, first compound 3.16 µM
[36] = second compound 10 µM, first compound 10 µM
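Also: spheroids exposed to compounds for seven days before readout.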
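For viability, T/C in this document: 100% = DMSO vehicle control viability.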

SMILES: C#Cc1c(F)ccc2cc(O)cc(-c3ncc4c(N5CC6CCC(C5)N6)nc(OCC56CCCN5CC(F)C6)nc4c3F)c12 (stereo not drawn) + COC1C(OC(N)=O)C(O)C(Oc2ccc3c(O)c(NC(=O)c4ccc(O)c(CC=C(C)C)c4)c(=O)oc3c2C)OC1(C)C
- IC50 (second compound 0.0316 µM): > 10 µM
- IC50 (second compound 0.1 µM): > 10 µM
- IC50 (second compound 0.316 µM): > 10 µM
- IC50 (second compound 1 µM): > 10 µM
- IC50 (second compound 3.16 µM): > 10 µM
- IC50 (second compound 10 µM): > 10 µM
- viability, T/C [1]: 87.5%
- viability, T/C [2]: 90.6%
- viability, T/C [3]: 73.8%
- viability, T/C [4]: 69.2%
- viability, T/C [5]: 58.4%
- viability, T/C [6]: 50.3%
- viability, T/C [7]: 96%
- viability, T/C [8]: 89.1%
- viability, T/C [9]: 80%
- viability, T/C [10]: 68.9%
- viability, T/C [11]: 59.7%
- viability, T/C [12]: 52.1%
- viability, T/C [13]: 101%
- viability, T/C [14]: 84.8%
- viability, T/C [15]: 75.8%
- viability, T/C [16]: 67.7%
- viability, T/C [17]: 61.1%
- viability, T/C [18]: 51.1%
- viability, T/C [19]: 96.5%
- viability, T/C [20]: 88%
- viability, T/C [21]: 75%
- viability, T/C [22]: 63.9%
- viability, T/C [23]: 57.4%
- viability, T/C [24]: 49.8%
- viability, T/C [25]: 97.2%
- viability, T/C [26]: 93.9%
- viability, T/C [27]: 70.4%
- viability, T/C [28]: 63.9%
- viability, T/C [29]: 60.6%
- viability, T/C [30]: 49%
- viability, T/C [31]: 103%
- viability, T/C [32]: 92.1%
- viability, T/C [33]: 73.5%
- viability, T/C [34]: 67.2%
- viability, T/C [35]: 64.4%
- viability, T/C [36]: 49.6%

SMILES: CNCc1ccc(-c2[nH]c3cc(F)cc4c3c2CCNC4=O)cc1 + Nc1ccc(C#CCN(C(=O)Cc2ncc(C(F)(F)F)cc2C(F)(F)F)c2ccc(F)cc2)nn1
- IC50 (second compound 0.0316 µM): > 10 µM
- IC50 (second compound 0.1 µM): > 10 µM
- IC50 (second compound 0.316 µM): > 10 µM
- IC50 (second compound 1 µM): > 10 µM
- IC50 (second compound 3.16 µM): > 10 µM
- IC50 (second compound 10 µM): > 10 µM
- viability, T/C [1]: 91.6%
- viability, T/C [2]: 106%
- viability, T/C [3]: 102%
- viability, T/C [4]: 87.2%
- viability, T/C [5]: 116%
- viability, T/C [6]: 97.7%
- viability, T/C [7]: 100%
- viability, T/C [8]: 95.3%
- viability, T/C [9]: 97.5%
- viability, T/C [10]: 101%
- viability, T/C [11]: 102%
- viability, T/C [12]: 110%
- viability, T/C [13]: 109%
- viability, T/C [14]: 108%
- viability, T/C [15]: 87.4%
- viability, T/C [16]: 96.4%
- viability, T/C [17]: 105%
- viability, T/C [18]: 101%
- viability, T/C [19]: 101%
- viability, T/C [20]: 97.4%
- viability, T/C [21]: 105%
- viability, T/C [22]: 90.5%
- viability, T/C [23]: 107%
- viability, T/C [24]: 122%
- viability, T/C [25]: 100%
- viability, T/C [26]: 112%
- viability, T/C [27]: 111%
- viability, T/C [28]: 97.4%
- viability, T/C [29]: 110%
- viability, T/C [30]: 98.2%
- viability, T/C [31]: 94.8%
- viability, T/C [32]: 104%
- viability, T/C [33]: 110%
- viability, T/C [34]: 102%
- viability, T/C [35]: 104%
- viability, T/C [36]: 105%

SMILES: O=C(Nc1ccc(O)c(NS(=O)(=O)c2ccc(F)cc2)c1)c1ccc(-c2ccccc2)cc1 + Cc1cccc(N(C)C(=O)C2C(O)CCN2c2nc(C)cc(C(F)(F)F)c2C#N)c1
- IC50 (second compound 0.0316 µM): > 10 µM
- IC50 (second compound 0.1 µM): > 10 µM
- IC50 (second compound 0.316 µM): > 10 µM
- IC50 (second compound 1 µM): > 10 µM
- IC50 (second compound 3.16 µM): > 10 µM
- IC50 (second compound 10 µM): > 10 µM
- viability, T/C [1]: 92%
- viability, T/C [2]: 119%
- viability, T/C [3]: 86.7%
- viability, T/C [4]: 97.3%
- viability, T/C [5]: 103%
- viability, T/C [6]: 102%
- viability, T/C [7]: 101%
- viability, T/C [8]: 106%
- viability, T/C [9]: 100%
- viability, T/C [10]: 98.6%
- viability, T/C [11]: 107%
- viability, T/C [12]: 99.8%
- viability, T/C [13]: 101%
- viability, T/C [14]: 108%
- viability, T/C [15]: 92.4%
- viability, T/C [16]: 96.7%
- viability, T/C [17]: 105%
- viability, T/C [18]: 118%
- viability, T/C [19]: 96.6%
- viability, T/C [20]: 93.6%
- viability, T/C [21]: 98.4%
- viability, T/C [22]: 97.7%
- viability, T/C [23]: 101%
- viability, T/C [24]: 115%
- viability, T/C [25]: 98.1%
- viability, T/C [26]: 93.7%
- viability, T/C [27]: 85.7%
- viability, T/C [28]: 104%
- viability, T/C [29]: 109%
- viability, T/C [30]: 99%
- viability, T/C [31]: 97.8%
- viability, T/C [32]: 84.6%
- viability, T/C [33]: 107%
- viability, T/C [34]: 86%
- viability, T/C [35]: 104%
- viability, T/C [36]: 109%

SMILES: CCc1cc2c(N3CCc4c(cc(Cn5ccnc5)cc4-c4cn(C)nc4C(F)(F)F)C3=O)cc(C)nc2c(OC)n1 + Nc1ccc(C#CCN(C(=O)Cc2ncc(C(F)(F)F)cc2C(F)(F)F)c2ccc(F)cc2)nn1
- IC50 (second compound 0.0316 µM): > 10 µM
- IC50 (second compound 0.1 µM): > 10 µM
- IC50 (second compound 0.316 µM): > 10 µM
- IC50 (second compound 1 µM): > 10 µM
- IC50 (second compound 3.16 µM): > 10 µM
- IC50 (second compound 10 µM): > 10 µM
- viability, T/C [1]: 97%
- viability, T/C [2]: 96.8%
- viability, T/C [3]: 95.3%
- viability, T/C [4]: 93.2%
- viability, T/C [5]: 98.2%
- viability, T/C [6]: 92.7%
- viability, T/C [7]: 108%
- viability, T/C [8]: 87.9%
- viability, T/C [9]: 89.7%
- viability, T/C [10]: 95.9%
- viability, T/C [11]: 91.9%
- viability, T/C [12]: 96.2%
- viability, T/C [13]: 102%
- viability, T/C [14]: 92.2%
- viability, T/C [15]: 95.7%
- viability, T/C [16]: 96%
- viability, T/C [17]: 96.1%
- viability, T/C [18]: 86.5%
- viability, T/C [19]: 94.5%
- viability, T/C [20]: 95%
- viability, T/C [21]: 89.3%
- viability, T/C [22]: 85.3%
- viability, T/C [23]: 104%
- viability, T/C [24]: 88.6%
- viability, T/C [25]: 101%
- viability, T/C [26]: 93.3%
- viability, T/C [27]: 85.9%
- viability, T/C [28]: 86.3%
- viability, T/C [29]: 92.6%
- viability, T/C [30]: 86.3%
- viability, T/C [31]: 98.5%
- viability, T/C [32]: 95.3%
- viability, T/C [33]: 80.4%
- viability, T/C [34]: 96%
- viability, T/C [35]: 89.1%
- viability, T/C [36]: 86.8%
